Source: the supplement of paper PMC10307832

Tests used:
Assay in all cases: relative viability (nuclei count vs DMSO), 5 days (fraction); higher = more cells survive
[1] = test system: NCI-H322M
Procedure, shortened: (§1)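 Cells from lung cancer lines were seeded into 1536-well plates and, one day later, dosed by pin tool. Treatments were either a single drug or a fixed dose of an anchor drug with five library-drug doses (not always all listed) in √10 steps. After 5 days, nuclei were stained in a one-step fixation (final 0.05% Triton X-100, 1% formaldehyde, 1 ug/ml Hoechst) and counted on 4× images, and relative viability is the treated-to-vehicle nuclei ratio, as the median of duplicate plates.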

[2] = test system: NCI-H1563
Procedure, shortened: as §1

[3] = test system: NCI-H522
Procedure, shortened: as §1

[4] = test system: CAL-12T
Procedure, shortened: as §1

[5] = test system: NCI-H838
Procedure, shortened: as §1

[6] = test system: NCI-H727
Procedure, shortened: as §1

[7] = test system: HCC-15
Procedure, shortened: as §1

[8] = test system: COR-L 105
Procedure, shortened: as §1

[9] = test system: BEN
Procedure, shortened: as §1

[10] = test system: SW 900
Procedure, shortened: as §1

[11] = test system: LU99A
Procedure, shortened: as §1

[12] = test system: PC-3 [JPC-3]
Procedure, shortened: as §1

[13] = test system: NCI-H1651
Procedure, shortened: as §1

[14] = test system: NCI-H460
Procedure, shortened: as §1

[15] = test system: NCI-H2023
Procedure, shortened: as §1

[16] = test system: LK-2
Procedure, shortened: as §1

[17] = test system: HCC-44
Procedure, shortened: as §1

[18] = test system: NCI-H358
Procedure, shortened: as §1

[19] = test system: 201T
Procedure, shortened: as §1

[20] = test system: ABC-1
Procedure, shortened: as §1

[21] = test system: EMC-BAC-2
Procedure, shortened: as §1

[22] = test system: EKVX
Procedure, shortened: as §1

[23] = test system: NCI-H520
Procedure, shortened: as §1

**Q.** Which results are given for `CCNC(=O)c1noc(-c2cc(C(C)C)c(O)cc2O)c1-c1ccc(CN2CCOCC2)cc1` [Luminespib] + COc1cccc2cc(-c3nc([C@H]4CC[C@H](C(=O)O)CC4)n4ncnc(N)c34)[nH]c12 [OSI-027] (partner 0.5 µM)?
**A.** relative viability ([1]; first compound 0.002 µM): 0.564; relative viability ([1]; first compound 0.006325 µM): 0.503; relative viability ([1]; first compound 0.02 µM): 0.467; relative viability ([1]; first compound 0.06325 µM): 0.278; relative viability ([1]; first compound 0.2 µM): 0.312; relative viability ([2]; first compound 0.002 µM): 0.756; relative viability ([2]; first compound 0.006325 µM): 0.697; relative viability ([2]; first compound 0.02 µM): 0.585; relative viability ([2]; first compound 0.06325 µM): 0.473; relative viability ([2]; first compound 0.2 µM): 0.468; relative viability ([3]; first compound 0.002 µM): 0.687; relative viability ([3]; first compound 0.006325 µM): 0.732; relative viability ([3]; first compound 0.02 µM): 0.615; relative viability ([3]; first compound 0.06325 µM): 0.538; relative viability ([3]; first compound 0.2 µM): 0.587; relative viability ([4]; first compound 0.002 µM): 0.799; relative viability ([4]; first compound 0.006325 µM): 0.63; relative viability ([4]; first compound 0.02 µM): 0.21; relative viability ([4]; first compound 0.06325 µM): 0.0898; relative viability ([4]; first compound 0.2 µM): 0.0995; relative viability ([5]; first compound 0.002 µM): 0.391; relative viability ([5]; first compound 0.006325 µM): 0.375; relative viability ([5]; first compound 0.02 µM): 0.275; relative viability ([5]; first compound 0.06325 µM): 0.134; relative viability ([5]; first compound 0.2 µM): 0.149; relative viability ([6]; first compound 0.002 µM): 0.72; relative viability ([6]; first compound 0.006325 µM): 0.549; relative viability ([6]; first compound 0.02 µM): 0.463; relative viability ([6]; first compound 0.06325 µM): 0.33; relative viability ([6]; first compound 0.2 µM): 0.23; relative viability ([7]; first compound 0.002 µM): 0.686; relative viability ([7]; first compound 0.006325 µM): 0.644; relative viability ([7]; first compound 0.02 µM): 0.556; relative viability ([7]; first compound 0.06325 µM): 0.0983; relative viability ([7]; first compound 0.2 µM): 0.0973; relative viability ([8]; first compound 0.002 µM): 0.775; relative viability ([8]; first compound 0.006325 µM): 0.619; relative viability ([8]; first compound 0.02 µM): 0.331; relative viability ([8]; first compound 0.06325 µM): 0.162; relative viability ([8]; first compound 0.2 µM): 0.176; relative viability ([9]; first compound 0.002 µM): 0.288; relative viability ([9]; first compound 0.006325 µM): 0.292; relative viability ([9]; first compound 0.02 µM): 0.316; relative viability ([9]; first compound 0.06325 µM): 0.212; relative viability ([9]; first compound 0.2 µM): 0.183; relative viability ([10]; first compound 0.002 µM): 0.502; relative viability ([10]; first compound 0.006325 µM): 0.471; relative viability ([10]; first compound 0.02 µM): 0.131; relative viability ([10]; first compound 0.06325 µM): 0.0999; relative viability ([10]; first compound 0.2 µM): 0.0789; relative viability ([11]; first compound 0.002 µM): 0.274; relative viability ([11]; first compound 0.006325 µM): 0.265; relative viability ([11]; first compound 0.02 µM): 0.265; relative viability ([11]; first compound 0.06325 µM): 0.154; relative viability ([11]; first compound 0.2 µM): 0.162; relative viability ([12]; first compound 0.002 µM): 0.813; relative viability ([12]; first compound 0.006325 µM): 0.718; relative viability ([12]; first compound 0.02 µM): 0.583; relative viability ([12]; first compound 0.06325 µM): 0.58; relative viability ([12]; first compound 0.2 µM): 0.225; relative viability ([13]; first compound 0.002 µM): 0.818; relative viability ([13]; first compound 0.006325 µM): 0.622; relative viability ([13]; first compound 0.02 µM): 0.42; relative viability ([13]; first compound 0.06325 µM): 0.377; relative viability ([13]; first compound 0.2 µM): 0.18; relative viability ([14]; first compound 0.002 µM): 0.702; relative viability ([14]; first compound 0.006325 µM): 0.586; relative viability ([14]; first compound 0.02 µM): 0.0482; relative viability ([14]; first compound 0.06325 µM): 0.0153; relative viability ([14]; first compound 0.2 µM): 0.0165; relative viability ([15]; first compound 0.002 µM): 0.44; relative viability ([15]; first compound 0.006325 µM): 0.374; relative viability ([15]; first compound 0.02 µM): 0.131; relative viability ([15]; first compound 0.06325 µM): 0.0545; relative viability ([15]; first compound 0.2 µM): 0.0624; relative viability ([16]; first compound 0.002 µM): 0.209; relative viability ([16]; first compound 0.006325 µM): 0.191; relative viability ([16]; first compound 0.02 µM): 0.149; relative viability ([16]; first compound 0.06325 µM): 0.12; relative viability ([16]; first compound 0.2 µM): 0.136; relative viability ([17]; first compound 0.002 µM): 0.484; relative viability ([17]; first compound 0.006325 µM): 0.554; relative viability ([17]; first compound 0.02 µM): 0.483; relative viability ([17]; first compound 0.06325 µM): 0.135; relative viability ([17]; first compound 0.2 µM): 0.139; relative viability ([18]; first compound 0.002 µM): 0.9; relative viability ([18]; first compound 0.006325 µM): 0.747; relative viability ([18]; first compound 0.02 µM): 0.362; relative viability ([18]; first compound 0.06325 µM): 0.0472; relative viability ([18]; first compound 0.2 µM): 0.0538; relative viability ([19]; first compound 0.002 µM): 0.756; relative viability ([19]; first compound 0.02 µM): 0.668; relative viability ([19]; first compound 0.06325 µM): 0.492; relative viability ([19]; first compound 0.2 µM): 0.159; relative viability ([20]; first compound 0.002 µM): 0.532; relative viability ([20]; first compound 0.006325 µM): 0.476; relative viability ([20]; first compound 0.02 µM): 0.312; relative viability ([20]; first compound 0.06325 µM): 0.195; relative viability ([20]; first compound 0.2 µM): 0.186; relative viability ([21]; first compound 0.002 µM): 0.426; relative viability ([21]; first compound 0.006325 µM): 0.354; relative viability ([21]; first compound 0.02 µM): 0.415; relative viability ([21]; first compound 0.06325 µM): 0.348; relative viability ([21]; first compound 0.2 µM): 0.184; relative viability ([22]; first compound 0.002 µM): 0.631; relative viability ([22]; first compound 0.006325 µM): 0.684; relative viability ([22]; first compound 0.06325 µM): 0.658; relative viability ([22]; first compound 0.2 µM): 0.143; relative viability ([23]; first compound 0.002 µM): 0.247; relative viability ([23]; first compound 0.006325 µM): 0.27; relative viability ([23]; first compound 0.02 µM): 0.231; relative viability ([23]; first compound 0.06325 µM): 0.159; relative viability ([23]; first compound 0.2 µM): 0.158
